Reference: patent publication US20260226068A1, “IMIDAZOTRIAZINE IL-17A MODULATORS AND USES THEREOF” (DICE ALPHA, INC., priority 2023, published 2026)

Columns and labels:
IL-17A/F = target: T1, IL-17A/F (Homo sapiens, UniProt Q16552+Q96PD4); test: IL-17A/F HEK-Blue cell assay (SEAP reporter); format: cell-based; conditions: HEK-Blue IL-17A reporter cells, IL17A/F 5 ng/mL, 20 hours, SEAP read at A630; read-out: HEK-Blue IL17AF (IC50 for IL-17A/F inhibition)
T1 construct: purchased R&D Systems
T1 sequence (Q16552 24-155): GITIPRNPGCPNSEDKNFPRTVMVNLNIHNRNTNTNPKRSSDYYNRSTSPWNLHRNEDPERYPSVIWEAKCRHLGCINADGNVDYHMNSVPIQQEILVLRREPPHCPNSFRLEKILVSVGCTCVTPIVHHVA
T1 sequence (Q96PD4 31-163): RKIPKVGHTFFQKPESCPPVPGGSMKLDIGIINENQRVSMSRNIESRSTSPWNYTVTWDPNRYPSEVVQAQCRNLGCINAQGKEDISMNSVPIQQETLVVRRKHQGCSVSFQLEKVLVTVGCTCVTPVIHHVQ

IL-17A/A = target: T2, IL-17A/A (Homo sapiens, UniProt Q16552); test: IL-17A/A HEK-Blue cell assay (SEAP reporter); format: cell-based; conditions: HEK-Blue IL-17A reporter cells, IL17A/A 5 ng/mL, 20 hours, SEAP read at A630; read-out: HEK-Blue IL17AA (IC50 for IL-17A/A inhibition)
T2 construct: purchased Genscript Z03228
T2 sequence (Q16552 24-155): T1 sequence (Q16552 24-155)

IC50 (IL-17A/F) [nM] | IC50 (IL-17A/A) [nM] | SMILES
> 1000 | < 100 | CCn1nccc1C(=O)N[C@H](c1cn2nc(C[C@H]3C[C@@H](C(F)(F)F)CNC3=O)c(CN3CCCCC3)nc2n1)C1CCC(F)(F)CC1 [Compound 288, N—((S)-(4,4-difluorocyclohexyl)(2-(((3R,5R)-2-oxo-5-(trifluoromethyl)piperidin-3-yl)methyl)-3-(piperidin-1-ylmethyl)imidazo[1,2-b][1,2,4]triazin-6-yl)methyl)-1-ethyl-1H-pyrazole-5-carboxamide]
< 100 | < 100 | CCn1nccc1C(=O)N[C@H](c1cn2nc(C[C@H]3C[C@@H](C(F)(F)F)CNC3=O)c(C3CCOCC3)nc2n1)C1CCCCCC1 [Compound 289, N—((S)-cycloheptyl(2-(((3R,5R)-2-oxo-5-(trifluoromethyl)piperidin-3-yl)methyl)-3-(tetrahydro-2H-pyran-4-yl)imidazo[1,2-b][1,2,4]triazin-6-yl)methyl)-1-ethyl-1H-pyrazole-5-carboxamide]
< 100 | < 100 | Cn1nccc1C(=O)N[C@H](c1cn2nc(C[C@H]3C[C@@H](C(F)(F)F)CNC3=O)c(C3CCOCC3)nc2n1)C1CCCCCC1 [Compound 290, N—((S)-cycloheptyl(2-(((3R,5R)-2-oxo-5-(trifluoromethyl)piperidin-3-yl)methyl)-3-(tetrahydro-2H-pyran-4-yl)imidazo[1,2-b][1,2,4]triazin-6-yl)methyl)-1-methyl-1H-pyrazole-5-carboxamide]
> 1000 | < 100 | CCn1nccc1C(=O)N[C@H](c1cn2nc(C[C@H]3C[C@@H](C(F)(F)F)CNC3=O)c(C3CCOCC3)nc2n1)[C@H]1C[C@H]2C[C@H]2C1 [Compound 292, N—((S)-((1R,3r,5S)-bicyclo[3.1.0]hexan-3-yl)(2-(((3R,5R)-2-oxo-5-(trifluoromethyl)piperidin-3-yl)methyl)-3-(tetrahydro-2H-pyran-4-yl)imidazo[1,2-b][1,2,4]triazin-6-yl)methyl)-1-ethyl-1H-pyrazole-5-carboxamide]
> 1000 | < 100 | CCc1nc2nc([C@@H](NC(=O)c3ccnn3C)C3CCC(F)(F)CC3)cn2nc1C[C@H]1C[C@@H](C(F)(F)F)CNC1=O [Compound 295, N—((S)-(4,4-difluorocyclohexyl)(3-ethyl-2-(((3R,5R)-2-oxo-5-(trifluoromethyl)piperidin-3-yl)methyl)imidazo[1,2-b][1,2,4]triazin-6-yl)methyl)-1-methyl-1H-pyrazole-5-carboxamide]
100 to 1000 | < 100 | CCn1nccc1C(=O)N[C@H](c1cn2nc(C[C@H]3C[C@@H](C(F)(F)F)CNC3=O)c(N3CCN(C)CC3)nc2n1)C1CCC(F)(F)CC1 [Compound 296, N—((S)-(4,4-difluorocyclohexyl)(3-(4-methylpiperazin-1-yl)-2-(((3R,5R)-2-oxo-5-(trifluoromethyl)piperidin-3-yl)methyl)imidazo[1,2-b][1,2,4]triazin-6-yl)methyl)-1-ethyl-1H-pyrazole-5-carboxamide]
100 to 1000 | < 100 | CCn1nccc1C(=O)N[C@H](c1cn2nc(C[C@H]3CC(F)(F)CNC3=O)c(C3CCOCC3)nc2n1)[C@H]1CC[C@H](C)CC1 [Compound 297]
< 100 | < 100 | CCn1nccc1C(=O)N[C@H](c1cn2nc(C[C@H]3C[C@@H](C(F)(F)F)CNC3=O)c(N3CCN(C)[C@H](C)C3)nc2n1)C1CCC(F)(F)CC1 [Compound 298, N—((S)-(4,4-difluorocyclohexyl)(3-((R)-3,4-dimethylpiperazin-1-yl)-2-(((3R,5R)-2-oxo-5-(trifluoromethyl)piperidin-3-yl)methyl)imidazo[1,2-b][1,2,4]triazin-6-yl)methyl)-1-ethyl-1H-pyrazole-5-carboxamide]
